In patent publication US20020137929A1, “1 - (3-heterocyclylphenyl) isothiourea, -isourea, -guanidine and -amidine herbicidal agents” (Intellectual Property Department, BASF Aktiengesellschaft, priority 1998, published 2002):

What was measured:
SETVI (Foxtail, Green) [1] = assay: Postemergence herbicidal evaluation; type: in vivo, Setaria viridis; settings: postemergence
Summary of the method: (§1)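 Visual 0–9 rating versus control (stand, vigor, malformation, size, chlorosis, overall appearance), taken four to five weeks post-spray. Two-week-old seedlings received roughly 0.0156–0.500 kg/ha active in acetone/water (50/50) with 0.5% TWEEN 20 via nozzle at 40 psi.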

ORYSAT (Rice, Tebonnet) = assay: Postemergence herbicidal evaluation; type: in vivo, Oryza sativa, (L.) Tebonnet; settings: postemergence
Summary of the method: as §1

ZEAMX (Corn, Field) [2] = assay: Postemergence herbicidal evaluation; type: in vivo, Zea mays; settings: postemergence
Summary of the method: as §1

ECHCG (Barnyardgrass) = assay: Preemergence herbicidal evaluation; type: in vivo, Echinochloa crus-galli; settings: rated 4-5 weeks after treatment
Summary of the method: (§2)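 Seeds were planted in potting soil in cups, then sprayed preemergence with the test compound in aqueous acetone at about 0.0156 to 0.500 kg per hectare. Cups were kept under greenhouse conditions and visually rated 4–5 weeks after treatment on a 0–9 scale against an untreated control.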

SETVI (Foxtail, Green) [3] = assay: Preemergence herbicidal evaluation; type: in vivo, Setaria viridis; settings: rated 4-5 weeks after treatment
Summary of the method: as §2

[4] = tested on: TRZAWR (Wheat, Winter, cv Riband); assay: Preemergence herbicidal evaluation; type: in vivo, Triticum aestivum; settings: rated 4-5 weeks after treatment
Summary of the method: as §2

ZEAMX (Corn, Field) [5] = assay: Preemergence herbicidal evaluation; type: in vivo, Zea mays; settings: rated 4-5 weeks after treatment
Summary of the method: as §2

[6] = tested on: ECHORC (Watergrass (Calif.)); assay: Preemergence weed control under flooded paddy conditions; type: in vivo, Echinochloa oryzoides; settings: rated 3-4 weeks after treatment
Summary of the method: (§3)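 Seeds or propagules sown in top 0.5 cm of silt loam soil, flooded 1.5 to 3 cm above surface throughout. Compound in 50/50 v/v aqueous/acetone pipetted into flood water at about 0.0313 to 0.500 kg/ha. Visual 0-9 rating versus control after three to four weeks in greenhouse.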

CYPIR (Rice Flatsedge) [7] = assay: as above; type: in vivo, Cyperus iria; settings: rated 3-4 weeks after treatment
Summary of the method: as §3

CYPSE (Flatsedge) [8] = assay: as above; type: in vivo, Cyperus serotinus; settings: rated 3-4 weeks after treatment
Summary of the method: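 Visual injury scored 0-9 against control three to four weeks post-treatment, greenhouse-grown. Application: acetone/water (50/50) solutions dosed directly into flood water (1.5-3 cm over silt loam, planted top 0.5 cm), roughly 0.0313 to 0.500 kg/ha active ingredient.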

[9] = tested on: ECHORC (Watergrass (Calif.)); assay: Postemergence weed control under flooded paddy conditions; type: in vivo, Echinochloa oryzoides; settings: postemergence weeds, rated 3 to 4 weeks after treatment
Summary of the method: (§4)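 With weeds 3 to 5 cm tall and rice at the 1.5 to 2.5 leaf stage, containers were flooded and water held 1.5 to 3 cm above soil. Compounds in 50/50 v/v aqueous/acetone went into the flood water at about 0.0313 to 0.500 kg/ha a.i. Effects were visually rated 0–9 against controls after three to four weeks in the greenhouse.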

CYPIR (Rice Flatsedge) [10] = assay: as above; type: in vivo, Cyperus iria; settings: postemergence weeds, rated 3 to 4 weeks after treatment
Summary of the method: as §4

CYPSE (Flatsedge) [11] = assay: as above; type: in vivo, Cyperus serotinus; settings: postemergence weeds, rated 3 to 4 weeks after treatment
Summary of the method: as §4

[12] = tested on: SAGPY (Arrowhead (Pygmaea)); assay: as above; type: in vivo, Sagittaria pygmaea; settings: postemergence weeds, rated 3 to 4 weeks after treatment
Summary of the method: as §4

For `CCOC(=O)[C@H](Cc1ccccc1)N1C(=O)CSC1=Nc1cc(-n2c(=O)cc(C(F)(F)F)n(C)c2=O)c(F)cc1Cl` [Compound 80, Ethyl α-benzyl-2-{{2-chloro-5-[3,6-dihydro-3-methyl-2,6-dioxo-4-(trifluoromethyl)-1(2H)-pyrimidinyl]-4-fluorophenyl}imino}-4-oxo-3-thiazolidineacetate, L-], which SETVI herbicidal rating (SETVI (Foxtail, Green) [1]; rate 0.0158 kg/ha) is on record?
Its SETVI herbicidal rating is 1.0.

And the SETVI herbicidal rating (SETVI (Foxtail, Green) [1]; rate 0.0315 kg/ha)?
Its SETVI herbicidal rating is 2.0.

What about the SETVI herbicidal rating (SETVI (Foxtail, Green) [1]; rate 0.0630 kg/ha) of the same molecule?
The SETVI herbicidal rating was 4.0.

And the ORYSAT herbicidal rating (ORYSAT (Rice, Tebonnet); rate 0.0158 kg/ha)?
Its ORYSAT herbicidal rating is 3.5.

And the ORYSAT herbicidal rating (ORYSAT (Rice, Tebonnet); rate 0.0315 kg/ha)?
Its ORYSAT herbicidal rating is 3.5.

And the ORYSAT herbicidal rating (ORYSAT (Rice, Tebonnet); rate 0.0630 kg/ha)?
Its ORYSAT herbicidal rating is 4.0.

And the ZEAMX herbicidal rating (ZEAMX (Corn, Field) [2]; rate 0.0158 kg/ha)?
The ZEAMX herbicidal rating was 5.0.

What about the ZEAMX herbicidal rating (ZEAMX (Corn, Field) [2]; rate 0.0315 kg/ha) of the same molecule?
Its ZEAMX herbicidal rating is 5.0.

And the ZEAMX herbicidal rating (ZEAMX (Corn, Field) [2]; rate 0.0630 kg/ha)?
The ZEAMX herbicidal rating was 5.5.

What about the “Preemergence herbicidal rating ECHCG” value (ECHCG (Barnyardgrass); rate 0.0156 kg/ha) of the same molecule?
Its value is 0.0.

And the “Preemergence herbicidal rating ECHCG” value (ECHCG (Barnyardgrass); rate 0.0313 kg/ha)?
The value was 0.0.

And the “Preemergence herbicidal rating ECHCG” value (ECHCG (Barnyardgrass); rate 0.0625 kg/ha)?
The value was 0.0.

What about the “Preemergence herbicidal rating ECHCG” value (ECHCG (Barnyardgrass); rate 0.1250 kg/ha) of the same molecule?
The value was 1.0.

What about the “Preemergence herbicidal rating ECHCG” value (ECHCG (Barnyardgrass); rate 0.2500 kg/ha) of the same molecule?
The value was 0.0.

What about the “Preemergence herbicidal rating SETVI” value (SETVI (Foxtail, Green) [3]; rate 0.0156 kg/ha) of the same molecule?
Its value is 0.0.

And the “Preemergence herbicidal rating SETVI” value (SETVI (Foxtail, Green) [3]; rate 0.0313 kg/ha)?
The value was 0.0.

What about the “Preemergence herbicidal rating SETVI” value (SETVI (Foxtail, Green) [3]; rate 0.0625 kg/ha) of the same molecule?
Its value is 1.0.

And the “Preemergence herbicidal rating SETVI” value (SETVI (Foxtail, Green) [3]; rate 0.1250 kg/ha)?
The value was 7.0.

And the “Preemergence herbicidal rating SETVI” value (SETVI (Foxtail, Green) [3]; rate 0.2500 kg/ha)?
The value was 7.0.

And the “Preemergence herbicidal rating TRZAWR” value ([4]; rate 0.0156 kg/ha)?
Its value is 0.0.

And the “Preemergence herbicidal rating TRZAWR” value ([4]; rate 0.0313 kg/ha)?
Its value is 0.0.

What about the “Preemergence herbicidal rating TRZAWR” value ([4]; rate 0.0625 kg/ha) of the same molecule?
Its value is 0.0.

And the “Preemergence herbicidal rating TRZAWR” value ([4]; rate 0.1250 kg/ha)?
The value was 2.0.

And the “Preemergence herbicidal rating TRZAWR” value ([4]; rate 0.2500 kg/ha)?
Its value is 1.0.

What about the “Preemergence herbicidal rating ZEAMX” value (ZEAMX (Corn, Field) [5]; rate 0.0156 kg/ha) of the same molecule?
Its value is 0.0.

What about the “Preemergence herbicidal rating ZEAMX” value (ZEAMX (Corn, Field) [5]; rate 0.0313 kg/ha) of the same molecule?
Its value is 0.0.

What about the “Preemergence herbicidal rating ZEAMX” value (ZEAMX (Corn, Field) [5]; rate 0.0625 kg/ha) of the same molecule?
Its value is 1.0.

And the “Preemergence herbicidal rating ZEAMX” value (ZEAMX (Corn, Field) [5]; rate 0.1250 kg/ha)?
The value was 3.0.

And the “Preemergence herbicidal rating ZEAMX” value (ZEAMX (Corn, Field) [5]; rate 0.2500 kg/ha)?
The value was 3.0.

What about the “ECHORC herbicidal effect rating” value ([6]; 0.0313 kg/ha) of the same molecule?
The value was 9.0.

And the “ECHORC herbicidal effect rating” value ([6]; 0.0625 kg/ha)?
The value was 9.0.

What about the “ECHORC herbicidal effect rating” value ([6]; 0.1250 kg/ha) of the same molecule?
The value was 9.0.

What about the “ECHORC herbicidal effect rating” value ([6]; 0.2500 kg/ha) of the same molecule?
Its value is 9.0.

What about the “CYPIR herbicidal effect rating” value (CYPIR (Rice Flatsedge) [7]; 0.0313 kg/ha) of the same molecule?
Its value is 5.0.

And the “CYPIR herbicidal effect rating” value (CYPIR (Rice Flatsedge) [7]; 0.0625 kg/ha)?
The value was 7.0.

And the “CYPIR herbicidal effect rating” value (CYPIR (Rice Flatsedge) [7]; 0.1250 kg/ha)?
Its value is 7.0.

And the “CYPIR herbicidal effect rating” value (CYPIR (Rice Flatsedge) [7]; 0.2500 kg/ha)?
The value was 7.0.

What about the “CYPSE herbicidal effect rating” value (CYPSE (Flatsedge) [8]; 0.0313 kg/ha) of the same molecule?
Its value is 3.0.

And the “CYPSE herbicidal effect rating” value (CYPSE (Flatsedge) [8]; 0.0625 kg/ha)?
The value was 3.0.

And the “CYPSE herbicidal effect rating” value (CYPSE (Flatsedge) [8]; 0.1250 kg/ha)?
Its value is 3.0.

What about the “CYPSE herbicidal effect rating” value (CYPSE (Flatsedge) [8]; 0.2500 kg/ha) of the same molecule?
The value was 4.0.

What about the “Herbicidal rating ECHORC” value ([9]; Rate 0.0313 kg/ha) of the same molecule?
The value was 9.0.

And the “Herbicidal rating ECHORC” value ([9]; Rate 0.0625 kg/ha)?
The value was 9.0.

And the “Herbicidal rating ECHORC” value ([9]; Rate 0.1250 kg/ha)?
Its value is 9.0.

What about the “Herbicidal rating ECHORC” value ([9]; Rate 0.2500 kg/ha) of the same molecule?
Its value is 9.0.

What about the “Herbicidal rating CYPIR” value (CYPIR (Rice Flatsedge) [10]; Rate 0.0313 kg/ha) of the same molecule?
Its value is 5.0.

And the “Herbicidal rating CYPIR” value (CYPIR (Rice Flatsedge) [10]; Rate 0.0625 kg/ha)?
Its value is 7.0.

And the “Herbicidal rating CYPIR” value (CYPIR (Rice Flatsedge) [10]; Rate 0.1250 kg/ha)?
Its value is 7.0.

And the “Herbicidal rating CYPIR” value (CYPIR (Rice Flatsedge) [10]; Rate 0.2500 kg/ha)?
The value was 7.0.

And the “Herbicidal rating CYPSE” value (CYPSE (Flatsedge) [11]; Rate 0.0313 kg/ha)?
The value was 3.0.

And the “Herbicidal rating CYPSE” value (CYPSE (Flatsedge) [11]; Rate 0.0625 kg/ha)?
Its value is 3.0.

And the “Herbicidal rating CYPSE” value (CYPSE (Flatsedge) [11]; Rate 0.1250 kg/ha)?
Its value is 3.0.

And the “Herbicidal rating CYPSE” value (CYPSE (Flatsedge) [11]; Rate 0.2500 kg/ha)?
Its value is 4.0.

And the “Herbicidal rating SAGPY” value ([12]; Rate 0.0313 kg/ha)?
Its value is 0.0.

What about the “Herbicidal rating SAGPY” value ([12]; Rate 0.0625 kg/ha) of the same molecule?
Its value is 0.0.

What about the “Herbicidal rating SAGPY” value ([12]; Rate 0.1250 kg/ha) of the same molecule?
The value was 0.0.

And the “Herbicidal rating SAGPY” value ([12]; Rate 0.2500 kg/ha)?
Its value is 0.0.
